Measurements taken from ChEMBL document CHEMBL1150976, “The selectivity of protein kinase inhibitors: a further update” (Biochem J, 2007).

Columns and labels:
[1] = target: T1, Mitogen-activated protein kinase 13 (Homo sapiens) (UniProt O15264); test: Percentage p38delta activity remaining in the presence of 0.1uM inhibitor
T1 sequence (whole entry): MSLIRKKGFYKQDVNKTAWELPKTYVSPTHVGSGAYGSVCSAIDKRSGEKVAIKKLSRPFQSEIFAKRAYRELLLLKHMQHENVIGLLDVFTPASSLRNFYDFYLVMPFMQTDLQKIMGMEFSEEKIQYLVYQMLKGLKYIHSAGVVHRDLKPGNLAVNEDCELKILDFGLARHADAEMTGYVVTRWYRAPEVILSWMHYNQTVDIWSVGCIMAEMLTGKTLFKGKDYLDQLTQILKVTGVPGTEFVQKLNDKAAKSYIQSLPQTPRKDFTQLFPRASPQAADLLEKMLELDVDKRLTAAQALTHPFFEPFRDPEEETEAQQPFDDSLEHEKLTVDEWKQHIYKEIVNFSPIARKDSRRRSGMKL

[2] = target: Ribosomal protein S6 kinase beta-1 (Homo sapiens, UniProt P23443); test: Percentage S6K1 activity remaining in the presence of 0.1uM inhibitor
[3] = target: MAP kinase-interacting serine/threonine-protein kinase 2 (Homo sapiens) (UniProt Q9HBH9); test: Percentage MNK2 activity remaining in the presence of 0.1uM inhibitor
[4] = target: Serine/threonine-protein kinase Nek6 (Homo sapiens) (UniProt Q9HC98); test: Percentage NEK6 activity remaining in the presence of 0.1uM inhibitor
[5] = target: cAMP-dependent protein kinase catalytic subunit alpha (Homo sapiens, UniProt P17612); test: Percentage PKA activity remaining in the presence of 0.1uM inhibitor
[6] = target: Maternal embryonic leucine zipper kinase (Homo sapiens) (UniProt Q14680); test: Percentage MELK activity remaining in the presence of 0.1uM inhibitor
[7] = target: T2, Dual specificity tyrosine-phosphorylation-regulated kinase 2 (Homo sapiens) (UniProt Q92630); test: Percentage DYRK2 activity remaining in the presence of 0.1uM inhibitor
T2 sequence (whole entry): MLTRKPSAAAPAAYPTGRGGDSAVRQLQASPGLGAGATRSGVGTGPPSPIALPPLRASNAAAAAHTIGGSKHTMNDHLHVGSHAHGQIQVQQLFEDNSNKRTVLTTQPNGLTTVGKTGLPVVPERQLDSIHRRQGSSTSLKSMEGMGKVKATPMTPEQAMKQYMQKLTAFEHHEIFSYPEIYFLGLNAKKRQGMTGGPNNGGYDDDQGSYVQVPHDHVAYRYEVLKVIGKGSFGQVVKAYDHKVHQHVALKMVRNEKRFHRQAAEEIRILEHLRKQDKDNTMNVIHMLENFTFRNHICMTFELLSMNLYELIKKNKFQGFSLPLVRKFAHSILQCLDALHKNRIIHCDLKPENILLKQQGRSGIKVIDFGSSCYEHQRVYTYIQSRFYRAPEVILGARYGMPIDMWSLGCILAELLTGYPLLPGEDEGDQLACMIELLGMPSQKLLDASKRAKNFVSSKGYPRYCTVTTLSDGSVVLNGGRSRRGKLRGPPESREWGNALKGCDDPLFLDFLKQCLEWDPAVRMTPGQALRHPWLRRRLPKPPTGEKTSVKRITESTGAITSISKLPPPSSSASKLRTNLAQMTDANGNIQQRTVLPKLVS

[8] = target: Calcium/calmodulin-dependent protein kinase kinase 2 (Homo sapiens) (UniProt Q96RR4); test: Percentage CaMKKbeta activity remaining in the presence of 0.1uM inhibitor
[9] = target: T3, Mitogen-activated protein kinase 15 (Homo sapiens) (UniProt Q8TD08); test: Percentage ERK8 activity remaining in the presence of 0.1uM inhibitor
T3 sequence (whole entry): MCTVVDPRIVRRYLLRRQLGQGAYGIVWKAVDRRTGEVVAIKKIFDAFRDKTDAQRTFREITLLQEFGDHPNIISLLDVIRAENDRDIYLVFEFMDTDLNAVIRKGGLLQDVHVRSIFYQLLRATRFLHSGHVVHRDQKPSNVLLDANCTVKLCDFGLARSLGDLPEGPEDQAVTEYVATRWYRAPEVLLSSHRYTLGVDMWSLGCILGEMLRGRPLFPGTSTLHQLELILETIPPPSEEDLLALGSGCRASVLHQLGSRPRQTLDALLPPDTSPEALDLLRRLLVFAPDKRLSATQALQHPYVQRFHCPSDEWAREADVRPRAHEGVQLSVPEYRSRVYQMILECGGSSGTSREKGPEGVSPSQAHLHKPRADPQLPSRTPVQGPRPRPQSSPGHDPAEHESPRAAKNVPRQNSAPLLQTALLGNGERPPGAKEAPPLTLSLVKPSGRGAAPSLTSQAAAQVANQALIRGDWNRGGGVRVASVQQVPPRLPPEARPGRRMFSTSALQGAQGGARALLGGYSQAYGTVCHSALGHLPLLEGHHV

[10] = target: T4, 3-phosphoinositide-dependent protein kinase 1 (Homo sapiens) (UniProt O15530); test: Percentage PDK1 activity remaining in the presence of 0.1uM inhibitor
T4 sequence (whole entry): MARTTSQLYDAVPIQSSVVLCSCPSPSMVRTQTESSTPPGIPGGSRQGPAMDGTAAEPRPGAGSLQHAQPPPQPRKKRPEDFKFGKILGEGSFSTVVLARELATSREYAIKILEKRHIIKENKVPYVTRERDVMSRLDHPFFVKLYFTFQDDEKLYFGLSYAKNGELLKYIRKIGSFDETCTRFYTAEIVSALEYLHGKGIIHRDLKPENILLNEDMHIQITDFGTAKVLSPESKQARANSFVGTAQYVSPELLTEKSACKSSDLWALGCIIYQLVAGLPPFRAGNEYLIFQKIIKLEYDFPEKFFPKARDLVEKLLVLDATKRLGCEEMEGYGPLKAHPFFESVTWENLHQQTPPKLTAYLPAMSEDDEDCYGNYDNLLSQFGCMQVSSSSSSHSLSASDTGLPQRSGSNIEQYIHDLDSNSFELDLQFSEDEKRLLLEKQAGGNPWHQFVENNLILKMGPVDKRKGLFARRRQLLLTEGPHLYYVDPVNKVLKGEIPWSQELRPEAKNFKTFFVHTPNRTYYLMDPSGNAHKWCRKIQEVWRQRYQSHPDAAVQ

[11] = target: Dual specificity mitogen-activated protein kinase kinase 1 (Homo sapiens) (UniProt Q02750); test: Percentage MKK1 activity remaining in the presence of 0.1uM inhibitor
[12] = target: Homeodomain-interacting protein kinase 2 (Homo sapiens) (UniProt Q9H2X6); test: Percentage HIPK2 activity remaining in the presence of 0.1uM inhibitor
[13] = target: MAP kinase-interacting serine/threonine-protein kinase 1 (Homo sapiens) (UniProt Q9BUB5); test: Percentage MNK1 activity remaining in the presence of 0.1uM inhibitor
[14] = target: MAP kinase-activated protein kinase 2 (Homo sapiens) (UniProt P49137); test: Percentage MAPKAPK2 activity remaining in the presence of 0.1uM inhibitor
[15] = target: Serine/threonine-protein kinase pim-2 (Homo sapiens, UniProt Q9P1W9); test: Percentage PIM2 activity remaining in the presence of 0.1uM inhibitor
[16] = target: T2, Dual specificity tyrosine-phosphorylation-regulated kinase 2 (Homo sapiens); test: Percentage DYRK2 activity remaining in the presence of 0.01uM inhibitor

Chain of Calcium/calmodulin-dependent protein kinase kinase 2 (Homo sapiens) (Q96RR4 2-588 limits assumed): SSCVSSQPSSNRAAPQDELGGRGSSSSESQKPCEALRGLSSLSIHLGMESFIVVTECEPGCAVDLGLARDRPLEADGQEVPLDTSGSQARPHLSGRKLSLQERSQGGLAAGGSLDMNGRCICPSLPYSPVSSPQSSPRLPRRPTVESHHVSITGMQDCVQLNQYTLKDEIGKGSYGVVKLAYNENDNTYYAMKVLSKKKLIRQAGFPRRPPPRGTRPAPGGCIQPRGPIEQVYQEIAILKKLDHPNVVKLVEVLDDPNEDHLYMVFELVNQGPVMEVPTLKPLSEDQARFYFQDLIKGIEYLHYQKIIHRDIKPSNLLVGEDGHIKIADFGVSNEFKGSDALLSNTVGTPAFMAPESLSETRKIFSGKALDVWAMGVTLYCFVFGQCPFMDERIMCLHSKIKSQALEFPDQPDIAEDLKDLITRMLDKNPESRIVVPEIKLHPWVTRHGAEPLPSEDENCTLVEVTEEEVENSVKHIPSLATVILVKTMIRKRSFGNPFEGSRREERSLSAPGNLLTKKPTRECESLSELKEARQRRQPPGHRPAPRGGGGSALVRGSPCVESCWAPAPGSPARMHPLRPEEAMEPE
Chain of Ribosomal protein S6 kinase beta-1 (P23443 whole entry, looked up): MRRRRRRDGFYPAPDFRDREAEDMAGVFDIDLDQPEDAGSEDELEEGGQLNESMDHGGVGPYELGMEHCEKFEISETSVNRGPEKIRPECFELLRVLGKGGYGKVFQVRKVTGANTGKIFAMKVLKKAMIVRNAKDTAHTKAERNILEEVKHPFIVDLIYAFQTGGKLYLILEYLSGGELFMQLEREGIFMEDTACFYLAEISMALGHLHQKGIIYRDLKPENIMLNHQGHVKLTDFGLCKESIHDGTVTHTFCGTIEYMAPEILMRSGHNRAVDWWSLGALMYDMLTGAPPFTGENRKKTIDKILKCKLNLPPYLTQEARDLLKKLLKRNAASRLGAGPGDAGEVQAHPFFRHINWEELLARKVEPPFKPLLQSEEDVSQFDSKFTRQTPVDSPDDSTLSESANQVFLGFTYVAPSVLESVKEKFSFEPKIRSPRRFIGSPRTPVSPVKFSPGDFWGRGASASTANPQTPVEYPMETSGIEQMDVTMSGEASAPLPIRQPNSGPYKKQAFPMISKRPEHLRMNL
Chain of Maternal embryonic leucine zipper kinase (Homo sapiens) (Q14680 whole entry, looked up): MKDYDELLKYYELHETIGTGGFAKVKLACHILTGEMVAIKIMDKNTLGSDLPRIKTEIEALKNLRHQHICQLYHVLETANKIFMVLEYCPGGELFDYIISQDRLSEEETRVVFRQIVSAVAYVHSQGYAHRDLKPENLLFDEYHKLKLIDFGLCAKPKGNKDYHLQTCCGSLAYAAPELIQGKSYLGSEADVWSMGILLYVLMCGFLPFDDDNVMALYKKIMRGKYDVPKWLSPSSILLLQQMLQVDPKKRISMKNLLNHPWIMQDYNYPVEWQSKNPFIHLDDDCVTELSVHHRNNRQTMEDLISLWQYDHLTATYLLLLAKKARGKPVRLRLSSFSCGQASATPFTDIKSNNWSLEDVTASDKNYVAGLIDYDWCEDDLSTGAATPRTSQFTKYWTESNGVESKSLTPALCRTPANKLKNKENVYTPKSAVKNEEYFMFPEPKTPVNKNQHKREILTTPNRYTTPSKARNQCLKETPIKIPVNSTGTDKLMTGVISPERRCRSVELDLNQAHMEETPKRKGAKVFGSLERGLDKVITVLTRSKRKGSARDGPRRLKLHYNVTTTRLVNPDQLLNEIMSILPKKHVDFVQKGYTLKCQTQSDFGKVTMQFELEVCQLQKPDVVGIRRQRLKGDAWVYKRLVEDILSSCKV
Chain of Serine/threonine-protein kinase pim-2 (Q9P1W9 whole entry, looked up): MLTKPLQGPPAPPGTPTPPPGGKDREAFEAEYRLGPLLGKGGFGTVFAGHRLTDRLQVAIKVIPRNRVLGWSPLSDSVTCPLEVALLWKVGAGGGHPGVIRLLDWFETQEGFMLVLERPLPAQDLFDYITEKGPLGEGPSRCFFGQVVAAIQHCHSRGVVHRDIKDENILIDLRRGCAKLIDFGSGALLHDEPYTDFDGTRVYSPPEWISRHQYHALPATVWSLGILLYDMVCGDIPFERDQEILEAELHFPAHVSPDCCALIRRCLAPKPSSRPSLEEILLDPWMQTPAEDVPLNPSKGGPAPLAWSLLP
Chain of MAP kinase-interacting serine/threonine-protein kinase 2 (Homo sapiens) (Q9HBH9 whole entry, looked up): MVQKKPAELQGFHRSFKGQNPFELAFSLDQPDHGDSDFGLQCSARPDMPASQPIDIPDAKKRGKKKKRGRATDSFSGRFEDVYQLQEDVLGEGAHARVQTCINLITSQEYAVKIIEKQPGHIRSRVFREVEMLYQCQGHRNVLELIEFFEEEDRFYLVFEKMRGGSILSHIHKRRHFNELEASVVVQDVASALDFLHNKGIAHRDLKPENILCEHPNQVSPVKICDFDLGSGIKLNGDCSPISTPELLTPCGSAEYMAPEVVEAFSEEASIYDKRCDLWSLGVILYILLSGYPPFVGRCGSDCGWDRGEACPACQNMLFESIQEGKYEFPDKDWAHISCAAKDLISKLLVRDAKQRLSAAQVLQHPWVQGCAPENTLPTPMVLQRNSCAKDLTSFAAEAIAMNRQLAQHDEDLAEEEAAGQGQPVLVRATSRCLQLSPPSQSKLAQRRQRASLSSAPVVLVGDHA
Chain of Dual specificity mitogen-activated protein kinase kinase 1 (Homo sapiens) (Q02750 whole entry): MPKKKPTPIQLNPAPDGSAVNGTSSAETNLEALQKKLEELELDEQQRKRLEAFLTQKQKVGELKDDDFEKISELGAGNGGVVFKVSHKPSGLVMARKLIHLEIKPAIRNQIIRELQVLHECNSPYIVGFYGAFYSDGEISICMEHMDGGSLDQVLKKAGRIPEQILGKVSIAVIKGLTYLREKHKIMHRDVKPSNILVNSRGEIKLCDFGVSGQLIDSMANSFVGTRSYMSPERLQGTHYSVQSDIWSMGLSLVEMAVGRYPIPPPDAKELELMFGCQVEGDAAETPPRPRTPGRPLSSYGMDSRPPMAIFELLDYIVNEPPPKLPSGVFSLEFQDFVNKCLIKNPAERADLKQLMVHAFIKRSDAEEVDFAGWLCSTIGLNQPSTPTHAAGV
Chain of MAP kinase-interacting serine/threonine-protein kinase 1 (Homo sapiens) (Q9BUB5 whole entry, looked up): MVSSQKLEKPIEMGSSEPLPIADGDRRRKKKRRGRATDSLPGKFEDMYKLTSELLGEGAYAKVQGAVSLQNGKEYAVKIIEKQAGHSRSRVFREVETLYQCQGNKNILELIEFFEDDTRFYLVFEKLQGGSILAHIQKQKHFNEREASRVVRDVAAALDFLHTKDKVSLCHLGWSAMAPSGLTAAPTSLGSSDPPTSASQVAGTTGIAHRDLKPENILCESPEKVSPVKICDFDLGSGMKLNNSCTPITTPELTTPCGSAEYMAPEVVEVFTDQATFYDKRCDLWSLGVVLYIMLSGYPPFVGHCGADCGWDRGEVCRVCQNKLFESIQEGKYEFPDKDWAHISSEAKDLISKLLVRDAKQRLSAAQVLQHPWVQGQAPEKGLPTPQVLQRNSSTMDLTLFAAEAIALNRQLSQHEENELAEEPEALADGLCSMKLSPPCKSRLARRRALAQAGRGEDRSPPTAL
Chain of MAP kinase-activated protein kinase 2 (Homo sapiens) (P49137 whole entry, looked up): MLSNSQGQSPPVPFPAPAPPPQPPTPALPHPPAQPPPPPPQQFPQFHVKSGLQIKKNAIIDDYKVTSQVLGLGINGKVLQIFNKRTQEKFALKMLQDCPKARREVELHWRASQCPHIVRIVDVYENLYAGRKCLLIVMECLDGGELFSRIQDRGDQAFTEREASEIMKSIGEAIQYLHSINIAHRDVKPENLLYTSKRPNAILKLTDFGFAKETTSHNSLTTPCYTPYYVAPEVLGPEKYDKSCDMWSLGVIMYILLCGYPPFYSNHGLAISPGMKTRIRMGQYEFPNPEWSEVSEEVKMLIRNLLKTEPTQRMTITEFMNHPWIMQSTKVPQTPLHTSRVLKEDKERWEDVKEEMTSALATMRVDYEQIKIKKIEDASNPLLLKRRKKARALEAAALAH
Chain of Homeodomain-interacting protein kinase 2 (Homo sapiens) (Q9H2X6 whole entry, looked up): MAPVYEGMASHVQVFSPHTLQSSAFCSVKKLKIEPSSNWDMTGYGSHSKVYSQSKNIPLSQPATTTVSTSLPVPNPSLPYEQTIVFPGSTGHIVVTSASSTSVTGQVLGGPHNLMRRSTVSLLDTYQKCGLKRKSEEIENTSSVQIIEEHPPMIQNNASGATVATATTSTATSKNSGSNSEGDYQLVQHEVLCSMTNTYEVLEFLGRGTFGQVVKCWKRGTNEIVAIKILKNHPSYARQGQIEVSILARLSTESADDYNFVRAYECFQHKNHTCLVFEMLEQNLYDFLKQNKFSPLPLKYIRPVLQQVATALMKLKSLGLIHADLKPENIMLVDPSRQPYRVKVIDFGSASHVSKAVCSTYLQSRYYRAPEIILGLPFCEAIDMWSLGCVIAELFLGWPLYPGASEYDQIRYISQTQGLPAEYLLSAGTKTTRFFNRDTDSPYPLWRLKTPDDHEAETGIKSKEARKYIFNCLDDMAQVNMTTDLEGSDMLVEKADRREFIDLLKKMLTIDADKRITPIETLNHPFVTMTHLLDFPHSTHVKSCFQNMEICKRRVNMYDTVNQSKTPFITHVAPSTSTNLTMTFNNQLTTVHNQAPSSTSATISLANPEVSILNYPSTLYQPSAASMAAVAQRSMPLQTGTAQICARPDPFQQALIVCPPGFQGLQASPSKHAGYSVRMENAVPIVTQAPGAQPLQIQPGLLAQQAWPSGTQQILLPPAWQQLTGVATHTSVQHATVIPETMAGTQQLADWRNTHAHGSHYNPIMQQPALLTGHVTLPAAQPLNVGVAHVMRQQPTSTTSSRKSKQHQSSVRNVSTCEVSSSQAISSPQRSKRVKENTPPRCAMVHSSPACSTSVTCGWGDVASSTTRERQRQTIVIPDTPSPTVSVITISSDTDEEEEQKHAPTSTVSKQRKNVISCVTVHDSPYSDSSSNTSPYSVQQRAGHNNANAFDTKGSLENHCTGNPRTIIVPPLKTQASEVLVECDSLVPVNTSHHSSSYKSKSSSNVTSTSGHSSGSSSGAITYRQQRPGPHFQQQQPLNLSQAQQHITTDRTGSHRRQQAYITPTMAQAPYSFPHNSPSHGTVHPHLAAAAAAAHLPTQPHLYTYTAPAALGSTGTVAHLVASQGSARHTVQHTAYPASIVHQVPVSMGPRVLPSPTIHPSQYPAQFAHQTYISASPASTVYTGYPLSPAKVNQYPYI

Structure (SMILES)	Activity [1]	Activity [2]	Activity [3]	Activity [4]	Activity [5]	Activity ([6]; filed as antagonist)	Activity [7]	Activity [8]	Activity [9]	Activity [10]	Activity [11]	Activity [12]	Activity [13]	Activity [14]	Activity [15]	Activity ([9]; filed as antagonist)	Activity ([10]; filed as antagonist)	Activity [16]	Activity ([11]; filed as antagonist)	Activity ([2]; filed as antagonist)	other results
CC(C)CCN1c2nc(Nc3cc(F)c(O)c(F)c3)ncc2N(C)C(=O)C1C (configuration not stated)	105%	119%	96%	115%	89%	40%	91%	73%	82%	94%	98%	103%	87%	89%	100%	–	–	–	–	–	–
O=C(NCCCNc1nc(Nc2cccc(NC(=O)N3CCCC3)c2)ncc1I)c1cccs1	76%	84%	–	98%	72%	32%	76%	–	–	–	–	101%	–	108%	92%	7%	5%	105%	33%	–	Activity ([3]; filed as antagonist): 19%; Activity ([8]; filed as antagonist): 30%; Activity ([13]; filed as antagonist): 37%
Cc1n[nH]c2ccc(-c3cncc(OC[C@@H](N)Cc4c[nH]c5ccccc45)c3)cc12	68%	–	80%	95%	–	–	–	–	–	79%	67%	–	109%	73%	–	28%	–	79%	–	32%	Activity ([5]; filed as antagonist): 3%; Activity [6]: 63%; Activity ([7]; filed as antagonist): 26%; Activity ([12]; filed as antagonist): 24%; Activity ([15]; filed as antagonist): 15%
CC(C)[C@H](CO)Nc1nc(Nc2cccc(Cl)c2)c2ncn(C(C)C)c2n1 [PURVALANOLA]	98%	87%	98%	91%	79%	–	91%	60%	70%	79%	–	–	92%	106%	96%	–	–	–	–	–	Activity [6]: 72%
CN[C@@H]1C[C@H]2O[C@@](C)([C@@H]1OC)n1c3ccccc3c3c4c(c5c6ccccc6n2c5c31)C(=O)N[C@H]4O (stereo in doubt)	–	–	–	–	–	–	–	–	–	–	–	–	–	–	–	–	–	92%	–	–	–
Cn1cc(C2=C(c3cn(CCCSC(=N)N)c4ccccc34)C(=O)NC2=O)c2ccccc21	92%	–	103%	97%	51%	–	90%	65%	51%	62%	87%	88%	95%	90%	–	–	–	–	–	20%	Activity [6]: 61%; Activity ([15]; filed as antagonist): 30%
CN(C)C[C@@H]1CCn2cc(c3ccccc32)C2=C(C(=O)NC2=O)c2cn(c3ccccc23)CCO1	–	52%	101%	93%	59%	–	85%	53%	92%	–	–	63%	94%	114%	–	–	25%	–	42%	–	Activity ([15]; filed as antagonist): 41%
Cn1c2ccccc2c2c3c(c4c5ccccc5n(CCC#N)c4c21)CNC3=O	82%	–	–	96%	–	15%	–	–	–	–	–	63%	67%	118%	–	38%	11%	–	34%	12%	Activity ([3]; filed as antagonist): 30%; Activity ([5]; filed as antagonist): 50%; Activity ([7]; filed as antagonist): 49%; Activity ([8]; filed as antagonist): 11%
